Results on 15 molecules are retold here after patent publication US20250320205A1, “STAT6 DEGRADERS” (Gilead Sciences, Inc., priority 2024, published 2025).

Assay [1] concerns the target T1, STAT6 (Homo sapiens, UniProt P42226).
T1 construct: These cells express endogenous STAT6; host or cells: HeLa LgBiT clone 4.14 (CRISPR knock-in of HiBiT into the endogenous STAT6 gene)
T1 sequence (P42226 1-847): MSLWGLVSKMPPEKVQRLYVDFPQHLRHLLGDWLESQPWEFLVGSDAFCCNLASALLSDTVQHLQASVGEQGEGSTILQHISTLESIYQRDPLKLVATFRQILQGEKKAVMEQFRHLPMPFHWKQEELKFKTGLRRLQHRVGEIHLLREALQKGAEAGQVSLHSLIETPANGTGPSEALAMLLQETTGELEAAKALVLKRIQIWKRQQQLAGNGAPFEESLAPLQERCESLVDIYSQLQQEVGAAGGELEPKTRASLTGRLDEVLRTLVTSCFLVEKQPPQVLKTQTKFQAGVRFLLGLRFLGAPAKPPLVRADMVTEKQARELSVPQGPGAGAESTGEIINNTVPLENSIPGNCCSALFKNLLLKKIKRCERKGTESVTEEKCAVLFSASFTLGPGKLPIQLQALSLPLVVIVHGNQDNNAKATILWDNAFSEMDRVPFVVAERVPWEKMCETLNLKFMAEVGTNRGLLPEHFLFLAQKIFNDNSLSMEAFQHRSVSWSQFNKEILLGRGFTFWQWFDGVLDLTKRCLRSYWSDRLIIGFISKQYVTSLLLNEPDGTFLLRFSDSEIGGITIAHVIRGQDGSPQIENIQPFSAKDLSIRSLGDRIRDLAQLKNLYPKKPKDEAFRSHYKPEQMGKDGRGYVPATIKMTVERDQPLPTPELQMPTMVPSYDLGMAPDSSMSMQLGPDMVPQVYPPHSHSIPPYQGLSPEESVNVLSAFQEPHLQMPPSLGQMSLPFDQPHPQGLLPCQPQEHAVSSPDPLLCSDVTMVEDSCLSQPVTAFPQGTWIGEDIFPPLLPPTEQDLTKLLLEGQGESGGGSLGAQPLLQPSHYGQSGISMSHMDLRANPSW
Put plainly: STAT6 Degrader Assay (HiBiT based, HeLa LgBiT clone 4.14 cells). The class given is cell-based. Conditions: geometric mean across assay runs and compound batches; DC50 provided for test compounds with >80% Emax; read-out: STAT6 degradation DC50. An outline of the steps: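 HeLa LgBiT clone 4.14 with CRISPR HiBiT-tagged endogenous STAT6, 5000 cells/well, compound exposure 4-24 h at 37° C. Residual STAT6 read as Nano-Glo luminescence after 0.5 h. 50 μM terfenadine set 100% degradation; DC50 in nM.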

For assay [2], the system named is Eotaxin-3 (CCL26) release. Put plainly: Human Whole Blood Eotaxin-3 Assay (IL-4 stimulated). In kind it is cell-based. As to conditions: geometric mean across assay runs and compound batches, EC50 provided for test compounds with >80% Emax. An outline of the steps: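 Lithium-heparin human whole blood preincubated 2 h at 37 °C with compounds (4-fold dilutions, triplicate, 0.5% DMSO final). Then stimulated with 400 pM final recombinant human IL-4 for 48 h. Eotaxin-3 in supernatant quantified by MSD immunoassay.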

Take `CNc1ccn(-c2ccnc3c2cc([C@H](C)N2CC=C(c4c(C)cc(C(=O)N5CCn6nc(CN7CCC(c8ccc(NC9CCC(=O)NC9=O)cc8F)CC7)cc6C5)cc4F)CC2)n3C)c(=O)c1` (stereo partly drawn) [Example 2g15, 3-((3-fluoro-4-(1-((5-(3-fluoro-5-methyl-4-(1-((S)-1-(1-methyl-4-(4-(methyl-amino)-2-oxopyridin-1(2H)-yl)-1H-pyrrolo[2,3-b]pyridin-2-yl)ethyl)-1,2,3,6-tetrahydro-pyridin-4-yl)benzoyl)-4,5,6,7-tetrahydropyrazolo[1,5-a]pyr-azin-2-yl)methyl)piperidin-4-yl)phenyl)amino)piperidine-2,6-dione]: the DC50 in assay [1] came out at 0.2 nM. The EC50 in assay [2] (Homo sapiens) is 0.1 nM.
In the same order, the values of `Cc1cc(C(=O)N2CCC(CN3CCN(c4ccc(NC5CCC(=O)NC5=O)cc4F)CC3)CC2)cc(F)c1C1=CCN(Cc2cc3c(-n4ccc5c(c4=O)CCN5)ccnc3n2C)CC1` (stereo not drawn) [Example 2g59, 3-((3-fluoro-4-(4-((1-(3-fluoro-5-methyl-4-(1-((1-methyl-4-(4-oxo-1,2,3,4-tetrahydro-5H-pyrrolo[3,2-c]pyridin-5-yl)-1H-pyrrolo [2,3-b]pyridin-2-yl)methyl)-1,2,3,6-tetrahydropyridin-4-yl)benzoyl)piperidin-4-yl)-methyl)piperazin-1-yl)phen-yl)amino)piperidine-2,6-dione] are 6.1 nM and 20.4 nM.
With `C[C@@H]1CN(c2ccc(NC3CCC(=O)NC3=O)cc2F)CCN1CC1CCN(C(=O)c2ccc(C3CCN([C@@H](C)c4cc5c(-n6ccc7c(c6=O)CCN7)ccnc5n4C)CC3)cc2)CC1` (stereo partly drawn) [Example 2f14, 3-((3-fluoro-4-((R)-3-methyl-4-((1-(4-(1-((S)-1-(1-methyl-4-(4-oxo-1,2,3,4-tetrahydro-5H-pyrrolo[3,2-c]pyridin-5-yl)-1H-pyrrolo[2,3-b]pyridin-2-yl)ethyl)piperidin-4-yl)-benzoyl)piperidin-4-yl)-meth-yl)piperazin-1-yl)phenyl)-amino)piperidine-2,6-dione], in assay [1], the 50% degradation concentration (DC50) worked out at 7.8 nM. The molecule further returned an EC50 in assay [2] (Homo sapiens) of 18.6 nM.
In the same order, the values of `CNc1ccn(-c2ccnc3c2cc([C@H](C)N2CC=C(c4c(F)cc(C(=O)N5CCn6nc(CN7CCC(c8ccc(NC9CCC(=O)NC9=O)cc8F)CC7)cc6C5)cc4F)CC2)n3C)c(=O)c1` (stereo partly drawn) [Example 2g108, 3-((4-(1-((5-(3,5-difluoro-4-(1-((S)-1-(1-methyl-4-(4-(methylamino)-2-oxopyridin-1(2H)-yl)-1H-pyrrolo[2,3-b]pyridin-2-yl)ethyl)-1,2,3,6-tetrahydropyridin-4-yl)benzo-yl)-4,5,6,7-tetrahydropyrazolo [1,5-a]pyrazin-2-yl)methyl)-piperidin-4-yl)-3-fluorophen-yl)amino)piperidine-2,6-dione] are 0.5 nM and 0.7 nM.
In the same order, the values of `CNc1ccn(-c2ccnc3c2cc([C@H](C)N2CC=C(c4c(C)cc(C(=O)N5CCC(CN6CCN(c7ccc(N[C@H]8CCC(=O)NC8=O)c(OC)c7)CC6)CC5)cc4F)CC2)n3C)c(=O)c1` (single isomer, unassigned) [Example 2g126] are 4.3 nM and 21.2 nM.
On to `CNc1ccn(-c2ccnc3c2cc([C@H](C)N2CCC(c4c(C)cc(C(=O)N5CCC(CN6CCN(c7ccc(NC8CCC(=O)NC8=O)cc7F)CC6)CC5)cc4F)CC2)n3C)c(=O)c1` (stereo partly drawn) [Example 2g43, 3-((3-fluoro-4-(4-((1-(3-fluoro-5-methyl-4-(1-((S)-1-(1-methyl-4-(2-(methyl-amino)-2-oxopyridin-1(2H)-yl)-1H-pyrrolo[2,3-b]pyridin-2-yl)ethyl)piperidin-4-yl)-benzoyl)piperidin-4-yl)meth-yl)piperazin-1-yl)phenyl)-amino)piperidine-2,6-dione], for which the DC50 in assay [1] was determined as 15.7 nM. In addition, the EC50 in assay [2] (Homo sapiens) came to 64.6 nM.
As to `CNc1ccn(-c2ccnc3c2cc([C@@H](C)N2CCC(c4c(F)cc(C(=O)N5CCn6nc(CN7CCC(c8ccc(NC9CCC(=O)NC9=O)cc8F)CC7)cc6C5)cc4F)CC2)n3C)c(=O)c1` (stereo partly drawn) [Example 2g110, 3-((4-(1-((5-(3,5-difluoro-4-(1-((R)-1-(1-methyl-4-(4-(methylamino)-2-oxopyridin-1(2H)-yl)-1H-pyrrolo[2,3-b]pyridin-2-yl)ethyl)piperidin-4-yl)benzoyl)-4,5,6,7-tetra-hydropyrazolo[1,5-a]pyrazin-2-yl)methyl)piperidin-4-yl)-3-fluorophenyl)amino)piperi-dine-2,6-dione], the DC50 in assay [1] stood at 10.5 nM. Also, in assay [2] (Homo sapiens), the concentration giving a half-maximal response (EC50) was 23.3 nM.
For `C[C@@H](c1cc2c(-n3ccc4c(c3=O)CCN4)ccnc2n1C)N1CCC(c2ccc(C(=O)N3CCC(CN4CCN(c5ccc(N[C@H]6CCC(=O)NC6=O)cc5F)CC4)CC3)cc2)CC1` (single isomer, unassigned) [Example 2c36], in that order: 5.7 nM and 22.1 nM.
In the same order, the values of `CNc1cc(=O)n(-c2ccnc3c2cc([C@H](C)N2CC=C(c4c(C)cc(C(=O)N5CCC(CN6CCN(c7ccc(NC8CCC(=O)NC8=O)cc7F)CC6)CC5)cc4F)CC2)n3C)cc1F` (stereo partly drawn) [Example 2g91, 3-((3-fluoro-4-(4-((1-(3-fluoro-4-(1-((S)-1-(4-(5-fluoro-4-(methylamino)-2-oxopyridin-1(2H)-yl)-1-methyl-1H-pyrrolo[2,3-b]pyridin-2-yl)ethyl)-1,2,3,6-tetrahydropyridin-4-yl)-5-methyl-benzoyl)piperidin-4-yl)methyl)piperazin-1-yl)-phenyl)amino)piperidine-2,6-dione] are 7 nM and 9.2 nM.
Regarding `C[C@@H](c1cc2c(-n3ccc4c(c3=O)CCN4)ccnc2n1C)N1CCC(c2ccc(C(=O)N3CCN(CC4CCN(c5ccc(NC6CCC(=O)NC6=O)cc5F)CC4)CC3)cc2)CC1` (stereo partly drawn) [Example 2g53, 3-((3-fluoro-4-(4-((4-(4-(1-((S)-1-(1-methyl-4-(4-oxo-1,2,3,4-tetrahydro-5H-pyrrolo [3,2-c]pyridin-5-yl)-1H-pyrrolo[2,3-b]pyridin-2-yl)-ethyl)piperidin-4-yl)benzoyl)-piperazin-1-yl)methyl)piperi-din-1-yl)phenyl)amino)piperi-dine-2,6-dione], the DC50 in assay [1] turned out to be 47.8 nM. This molecule also registered an EC50 in assay [2] of 63.1 nM.
With `CNc1cc(=O)n(-c2ccnc3c2cc(CN2CCC(c4c(F)cc(C(=O)N5CCn6nc(CN7CCC(c8ccc(N[C@@H]9CCC(=O)NC9=O)c(OC)c8)CC7)cc6C5)cc4F)CC2)n3C)cc1F` (single isomer, unassigned) [Example 2g124], in assay [1], the DC50 came to 2.5 nM. The same molecule registered an EC50 in assay [2] (Homo sapiens) of 5.7 nM.
For `CNc1cc(=O)n(-c2ccnc3c2cc([C@H](C)N2CC=C(c4c(C)cc(C(=O)N5CCn6nc(CN7CCC(c8ccc(NC9CCC(=O)NC9=O)c(OC)c8)CC7)cc6C5)cc4F)CC2)n3C)cc1F` (stereo partly drawn) [Example 2g90, 3-((4-(1-((5-(3-fluoro-4-(1-((S)-1-(4-(5-fluoro-4-(meth-ylamino)-2-oxopyridin-1(2H)-yl)-1-methyl-1H-pyrrolo[2,3-b]pyridin-2-yl)ethyl)-1,2,3,6-tetrahydropyridin-4-yl)-5-methylbenzoyl)-4,5,6,7-tetra-hydropyrazolo[1,5-a]pyrazin-2-yl)methyl)piperidin-4-yl)-2-methoxyphenyl)amino)-piperidine-2,6-dione], in that order: 0.2 nM and 0.6 nM.
For `CNc1cc(=O)n(-c2ccnc3c2cc([C@H](C)N2CC=C(c4c(F)cc(C(=O)N5CCC(CN6CCN(c7ccc(N[C@H]8CCC(=O)NC8=O)cc7F)CC6)CC5)cc4F)CC2)n3C)cc1F` (single isomer, unassigned) [Example 2g120], in that order: 9.4 nM and 36.5 nM.
In the same order, the values of `CNc1ccn(-c2ccnc3c2cc(CN2CCC(c4c(F)cc(C(=O)N5CCC(CN6CCN(c7ccc(N[C@@H]8CCC(=O)NC8=O)cc7F)CC6)CC5)cc4F)CC2)n3C)c(=O)c1` (single isomer, unassigned) [Example 2g57] are 9.3 nM and 50.3 nM.
On to `CNc1cc(=O)n(-c2ccnc3c2cc([C@H](C)N2CC=C(c4c(F)cc(C(=O)N5CCC(CN6CCN(c7ccc(N[C@@H]8CCC(=O)NC8=O)cc7F)CC6)CC5)cc4F)CC2)n3C)cc1F` (single isomer, unassigned) [Example 2g121], for which the DC50 in assay [1] was found to be 9.6 nM. The midpoint of the response in assay [2] (Homo sapiens), the EC50, lay at 30.9 nM.
